# In patent US9981942B2, “Piperidine derivatives having multimodal activity against pain” (LABORATORIOS DEL DR. ESTEVE S.A., priority 2013, dated 2018):
# System: σ1 receptor and the μ-opiod receptor
# Experiment: μ and σ1 dual binding: combined class from the Ki of both radioligand assays
# Parameters: species or system human; key to μ and σ1 dual binding: +: Both Ki-μ and Ki-σ1>=500 nM; ++: One Ki<500 nM while the other Ki is >=500 nM; +++: Both Ki-μ and Ki-σ1<500 nM; ++++: Both Ki-μ and Ki-σ1<100 nM
# Conditions: combined class for Ki-μ and Ki-σ1; transfected HEK-293 membranes (σ1), transfected CHO-K1 cell membranes (μ)
# How it was run: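 Classes combine both Ki values, split at 500 nM and 100 nM. Human μ-opioid binding used 1 nM [3H]-DAMGO on CHO-K1 membranes (27 °C, 60 min, pH 7.4, naloxone 10 μM for NSB); human σ1 used 5 nM [3H](+)-pentazocine on HEK-293 membranes (37 °C, 120 min, pH 8, haloperidol 10 μM for NSB).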
row,Structure (SMILES),μ and σ1 dual binding
1,"CC(C)S(=O)(=O)Nc1cccc(C2CCN(Cc3cn(Cc4ccccn4)nn3)CC2)c1 [Example 81, N-(3-(1-((1-(pyridin-2-ylmethyl)-1H-1,2,3-triazol-4-yl)methyl)piperidin-4-yl)phenyl)propane-2-sulfonamide]",++
2,"Oc1ccc(C(F)(F)F)c(C2CCN(Cc3cn(-c4ccccc4)nn3)CC2)c1 [Example 12, 3-(1-((1-phenyl-1H-1,2,3-triazol-4-yl)methyl)piperidin-4-yl)-4-(trifluoromethyl)phenol]",++
3,"CS(=O)(=O)Nc1cccc(C2CCN(Cc3cn([C@@H]4Cc5ccccc5[C@H]4O)nn3)CC2)c1 [Example 100, N-(3-(1-((1-((1R,2R)-1-hydroxy-2,3-dihydro-1H-inden-2-yl)-1H-1,2,3-triazol-4-yl)methyl)piperidin-4-yl)phenyl)methanesulfonamide]",++
4,"CCC(=O)Nc1cccc(C2CCN(Cc3cn(Cc4ccccn4)nn3)CC2)c1 [Example 103, N-(3-(1-((1-(pyridin-2-ylmethyl)-1H-1,2,3-triazol-4-yl)methyl)piperidin-4-yl)phenyl)propionamide]",++
5,"CS(=O)(=O)Nc1cccc(C2CCN(Cc3cncn3Cc3ccccc3)CC2)c1 [Example 185, N-(3-(1-((1-benzyl-1H-imidazol-5-yl)methyl)piperidin-4-yl)phenyl)methanesulfonamide]",++
6,"CC(C)S(=O)(=O)Nc1cccc([C@@H]2CCN(Cc3cn(Cc4ccccc4)nn3)C[C@@H]2O)c1 [Example 123, N-(3-((3R,4S)-1-((1-benzyl-1H-1,2,3-triazol-4-yl)methyl)-3-hydroxypiperidin-4-yl)phenyl)propane-2-sulfonamide]",++
7,"CCC(=O)Nc1cccc(C2CCN(Cc3cn([C@@H]4c5ccccc5C[C@H]4O)nn3)CC2)c1 [Example 69, N-(3-(1-((1-((1R,2R)-2-hydroxy-2,3-dihydro-1H-inden-1-yl)-1H-1,2,3-triazol-4-yl)methyl)piperidin-4-yl)phenyl)propionamide]",++
8,"CCS(=O)(=O)Nc1cccc(C2CCN(Cc3cn(Cc4ccccn4)nn3)CC2)c1 [Example 112, N-(3-(1-((1-(pyridin-2-ylmethyl)-1H-1,2,3-triazol-4-yl)methyl)piperidin-4-yl)phenyl)ethanesulfonamide]",++

# Same assay, conditions: transfected HEK-293 membranes (σ1), transfected CHO-K1 cell membranes (μ)
row,Structure (SMILES),Ki range for both μ and σ1 (dual-binding class) [nM]
1,"Oc1cccc(C2CCN(Cc3cn(C4CCC(F)(F)CC4)nn3)CC2)c1 [Example 64, 3-(1-((1-(4,4-difluorocyclohexyl)-1H-1,2,3-triazol-4-yl)methyl)piperidin-4-yl)phenol]",< 100
2,"CS(=O)(=O)Nc1ccc(F)c(C2CCN(Cc3cc(-c4ccccc4)no3)CC2)c1 [Example 179, N-(4-fluoro-3-(1-((3-phenylisoxazol-5-yl)methyl)piperidin-4-yl)phenyl)methanesulfonamide]",< 500
3,"CC(C)S(=O)(=O)Nc1cccc([C@@H]2CCN(Cc3cn(-c4ccccc4)nn3)C[C@@H]2O)c1 (racemic) [Example 115, N-(3-((3R,4S)-3-hydroxy-1-((1-phenyl-1H-1,2,3-triazol-4-yl)methyl)piperidin-4-yl)phenyl)propane-2-sulfonamide]",< 500
4,"CS(=O)(=O)Nc1cccc(C2CCN(Cc3cnn(-c4ccccc4)c3)CC2)n1 [Example 203, N-(6-(1-((1-phenyl-1H-pyrazol-4-yl)methyl)piperidin-4-yl)pyridin-2-yl)methanesulfonamide]",< 500
5,"CCC(=O)Nc1cncc(C2CCN(Cc3cn(-c4ccccc4)nn3)CC2)c1 [Example 195, N-(5-(1-((1-phenyl-1H-1,2,3-triazol-4-yl)methyl)piperidin-4-yl)pyridin-3-yl)propionamide]",≥ 500
6,"CS(=O)(=O)Nc1ccnc(C2CCN(Cc3cn(-c4ccccc4)nn3)CC2)c1 [Example 193, N-(2-(1-((1-phenyl-1H-1,2,3-triazol-4-yl)methyl)piperidin-4-yl)pyridin-4-yl)methanesulfonamide]",≥ 500
7,"Oc1cccc(C2CCN(Cc3cn(Cc4ccccc4)cn3)CC2)c1 [Example 184, 3-(1-((1-benzyl-1H-imidazol-4-yl)methyl)piperidin-4-yl)phenol]",< 100
8,"NS(=O)(=O)c1cccc(C2CCN(Cc3cn(-c4ccccc4)nn3)CC2)c1 [Example 140, 3-(1-((1-phenyl-1H-1,2,3-triazol-4-yl)methyl)piperidin-4-yl)benzenesulfonamide]",≥ 500
9,"Oc1cccc(C2CCN(CCc3cn(-c4ccccc4)nn3)CC2)c1 [Example 162, 3-(1-(2-(1-phenyl-1H-1,2,3-triazol-4-yl)ethyl)piperidin-4-yl)phenol]",< 100
10,"CS(=O)(=O)Nc1cccc(C2CCN(Cc3cc(Cc4ccccc4)no3)CC2)c1 [Example 178, N-(3-(1-((3-benzylisoxazol-5-yl)methyl)piperidin-4-yl)phenyl)methanesulfonamide]",< 500
11,"Oc1cccc(C2CCN(Cc3cn(-c4ccc(F)cc4F)nn3)CC2)c1 [Example 155, 3-(1-((1-(2,4-difluorophenyl)-1H-1,2,3-triazol-4-yl)methyl)piperidin-4-yl)phenol]",< 100
